How the values were obtained:
[1] = target: human recombinant IRAK4 protein (Homo sapiens (Human), UniProt Q9NWZ3); assay: IRAK4 enzyme assay (mass spectrometry readout); assay type: biochemical; conditions: 3 mM ATP, 0.2 nM enzyme; geometric mean of at least n=2, * single experiment
Experimental: Potency of IRAK4 Inhibitor Compounds in IRAK4 Enzyme Assay
The inhibitory activity of compounds against IRAK4 were determined in an enzymatic assay using mass spectrometry readout. Ten point half-log compound concentration response curves, with a top concentration of 1 μM or 10 μM, were generated from 10 mM stocks of compound solubilized in DMSO using an Echo 655 (Labcyte Inc) and added to 384 well assay plates (Greiner #781280). To the assay plates, 10 μL of human recombinant IRAK4 protein (Life Technologies #PV4002) diluted to a final concentration of 0.2 nM in assay buffer (50 mM Tris-HCl pH 7.4, 10 mM MgCl, 5 mM glutathione, 0.01% BSA, 3 mM ATP) was added. The enzyme was incubated with the compounds at room temperature for 15 minutes before a peptide substrate ([…], Innovagen custom synthesis, 10 mM in DMSO) was added to each well to a final concentration of 10 μM using an Echo 655 (Labcyte Inc). After two hours at room temperature, the reaction was stopped with 90 μL of 0.4% formic acid (Merck #33015). The unphosphorylated and phosphorylated peptide were measured by LC-MS/MS on a Waters TQ-S mass spectrometer. Peaks were integrated using the TargetLynx software and the ratios between phosphorylated and unphosphorylated peptides were calculated. Curves were fitted and compound potencies determined in Genedata Screener 15 (Genedata AG). Data presented are the geometric mean of at least n=2, or as denoted by an * are obtained from a single experiment.

[2] = target: IRAK4 auto-phosphorylation (Homo sapiens (Human), UniProt Q9NWZ3); assay: IRAK4 phosphorylation cell assay in IL-1β-stimulated Karpas-299 cells; assay type: cell-based; conditions: IL-1β 22.7 ng/mL, pIRAK4 (Thr345/Ser346), geometric mean of at least 2 experiments
IRAK4 auto-phosphorylation, sequence (Q9NWZ3 whole entry): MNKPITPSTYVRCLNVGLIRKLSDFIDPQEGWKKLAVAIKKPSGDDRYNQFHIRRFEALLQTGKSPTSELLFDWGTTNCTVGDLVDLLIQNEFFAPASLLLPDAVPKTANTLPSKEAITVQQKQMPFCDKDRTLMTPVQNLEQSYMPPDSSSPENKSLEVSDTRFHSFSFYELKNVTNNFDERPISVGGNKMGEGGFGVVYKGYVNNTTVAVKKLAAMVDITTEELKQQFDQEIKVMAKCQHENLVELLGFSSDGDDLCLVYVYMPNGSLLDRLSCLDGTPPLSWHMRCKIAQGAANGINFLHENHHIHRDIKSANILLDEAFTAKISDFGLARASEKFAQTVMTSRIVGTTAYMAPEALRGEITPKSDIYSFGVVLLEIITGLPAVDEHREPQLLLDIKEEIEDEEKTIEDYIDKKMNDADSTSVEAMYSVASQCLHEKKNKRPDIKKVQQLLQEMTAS
Experimental: IRAK4 Phosphorylation Cell Assay
The activation of IRAK4 by TLR or IL-1R ligands leads to IRAK4 auto-phosphorylation, which can be prevented by IRAK4 kinase inhibitors. The effect of IRAK4 inhibitor compounds on IRAK4 auto-phosphorylation was assessed in IL-1β-stimulated Karpas-299 cells as a measurement of cellular potency. Karpas-299 cells were cultured in RPMI 1640 (Gibco 61870-010) containing 10% FBS (Gibco #10270). Cells were plated at 2×10^4 cells per well in poly-D-lysine coated 384 well plates (Corning #356663) to which compounds had been added at various concentrations (10 point half log dose response with a final top concentration of 30 μM) using an Echo 655 (Labcyte Inc). Cells were centrifuged (250 g, 4 mins), incubated at 37° C. for 1 h, then stimulated with 22.7 ng/mL recombinant IL-1β (R&D Systems, #201-LB-025) at 37° C. for 10 mins, followed by fixation in 4% paraformaldehyde for 10 mins and permeabilization in ice-cold 70% MeOH for 30 mins. Cells were washed twice with phosphate-buffered saline (PBS) on a BlueWasher (BlueCatBio) then blocked with PBS containing 10% FBS for 20 mins. Blocking solution was removed with a BlueWasher and cells were stained with anti-pIRAK4 (Thr345/Ser346) (CST, #11927, 1:400) in blocking buffer with 0.05% Tween-20 for 1 h, then washed twice with PBS containing 0.05% Tween-20 on a BlueWasher, followed by staining with a Alexa 647-conjugated secondary anti-rabbit IgG antibody (CST, #4414, 1:2,000) and Hoechst 33342 (Sigma, 1:2,000) in blocking buffer with 0.05% Tween-20 for 30 mins. Finally, the cells were washed twice with PBS containing 0.05% Tween-20 and imaged on an ImageXpress Micro (Molecular Devices) with a 10× air objective using the appropriate filters. Images were analysed in Columbus (PerkinElmer) and the fluorescence intensity per cell from the secondary antibody was quantified. The quantified data were analysed in Genedata Screener 15 (Genedata AG). […] IC50 values are the geometric mean of at least 2 experiments.

human recombinant IRAK4 protein, sequence (Q9NWZ3 whole entry): as above

## COc1cc2nn([C@@H]3CC[C@H](O)[C@@H](C)C3)cc2cc1C(=O)Nc1cnc2cccnn12 (single isomer, unassigned) [Example 83]
[1]
  IC50: 0.0021 µM
[2]
  IC50: 0.034 µM

## COc1cc2nn([C@H]3CCC[C@@H](O)[C@H]3C)cc2cc1C(=O)Nc1cnc2cccnn12 (single isomer, unassigned) [Example 104]
[1]
  IC50: 0.0011 µM
[2]
  IC50: 0.025 µM

## COc1cc2nn([C@H]3CCC[C@@H](O)[C@H]3C)cc2cc1C(=O)Nc1cnc2cccnn12 (single isomer, unassigned) [Example 105]
[1]
  IC50: 0.0065 µM
[2]
  IC50: 0.096 µM

## COc1cc2nn([C@H]3CCC[C@@H](O)[C@@H]3C)cc2cc1C(=O)Nc1cnc2cccnn12 (single isomer, unassigned) [Example 108]
[1]
  IC50: 0.0004 µM
[2]
  IC50: 0.016 µM

## COc1cc2nn([C@H]3CCC[C@@H](O)[C@@H]3C)cc2cc1C(=O)Nc1cnc2cccnn12 (single isomer, unassigned) [Example 109]
[1]
  IC50: 0.0006 µM
[2]
  IC50: 0.015 µM

## COc1cc2nn(C3CCC4(CC3)COCC(=O)N4C)cc2cc1C(=O)Nc1cnn2cccnc12 (single isomer, unassigned) [Example 118, 6-Methoxy-2-(1-methyl-2-oxo-4-oxa-1-azaspiro[5.5]undecan-9-yl)-N-(pyrazolo[1,5-a]pyrimidin-3-yl)-2H-indazole-5-carboxamide]
[1]
  IC50: 0.0139 µM
[2]
  IC50: 0.199 µM

## COc1cc2nn(C3CCC4(CC3)COCC(=O)N4C)cc2cc1C(=O)Nc1cnn2cccnc12 (single isomer, unassigned) [Example 119, 6-Methoxy-2-(1-methyl-2-oxo-4-oxa-1-azaspiro[5.5]undecan-9-yl)-N-(pyrazolo[1,5-a]pyrimidin-3-yl)-2H-indazole-5-carboxamide]
[1]
  IC50: 0.0005 µM
[2]
  IC50: 0.016 µM

## COc1cc2nn([C@H]3CC[C@@]4(CCC(=O)N4C)CC3)cc2cc1C(=O)Nc1cnc2cccnn12 [Example 1, N-(Imidazo[1,2-b]pyridazin-3-yl)-6-methoxy-2-((5r,8r)-1-methyl-2-oxo-1-azaspiro[4.5]decan-8-yl)-2H-indazole-5-carboxamide]
[1]
  IC50: 0.0001 µM
[2]
  IC50: 0.005 µM

## COc1cc2nn([C@H]3CC[C@]4(CCC(=O)N4C)CC3)cc2cc1C(=O)Nc1cnc2cccnn12 [Example 2, N-(Imidazo[1,2-b]pyridazin-3-yl)-6-methoxy-2-((5s,8s)-1-methyl-2-oxo-1-azaspiro[4.5]decan-8-yl)-2H-indazole-5-carboxamide]
[1]
  IC50: 0.0034 µM
[2]
  IC50: 0.124 µM

## COc1cc2nn([C@H]3CC[C@@H](C(=O)N(C)C)CC3)cc2cc1C(=O)Nc1cnc2cccnn12 [Example 3, 2-((1s,4s)-4-(Dimethylcarbamoyl)cyclohexyl)-N-(imidazo[1,2-b]pyridazin-3-yl)-6-methoxy-2H-indazole-5-carboxamide]
[1]
  IC50: 0.0085 µM
[2]
  IC50: 0.272 µM

## COc1cc2nn([C@H]3CC[C@H](C(=O)N(C)C)CC3)cc2cc1C(=O)Nc1cnc2cccnn12 [Example 4, 2-((1r,4r)-4-(Dimethylcarbamoyl)cyclohexyl)-N-(imidazo[1,2-b]pyridazin-3-yl)-6-methoxy-2H-indazole-5-carboxamide]
[1]
  IC50: < 0.0003 µM
[2]
  IC50: 0.017 µM

## COc1cc2nn([C@H]3CC[C@@H](N(C)C(C)=O)CC3)cc2cc1C(=O)Nc1cnc2cccnn12 [Example 22, N-(Imidazo[1,2-b]pyridazin-3-yl)-6-methoxy-2-((1s,4s)-4-(N-methylacetamido)cyclohexyl)-2H-indazole-5-carboxamide]
[1]
  IC50: 0.0051 µM
[2]
  IC50: 0.268 µM

## COc1cc2nn([C@H]3CC[C@@H](N(C)C(C)=O)CC3)cc2cc1C(=O)Nc1cnn2cnccc12 [Example 24, 6-Methoxy-2-((1s,4s)-4-(N-methylacetamido)cyclohexyl)-N-(pyrazolo[1,5-c]pyrimidin-3-yl)-2H-indazole-5-carboxamide]
[1]
  IC50: 0.0831 µM
[2]
  IC50: 0.668 µM

## COc1cc2nn([C@H]3CC[C@@H](NC(=O)C4CC4)CC3)cc2cc1C(=O)Nc1cnn2cnccc12 [Example 27, 2-((1s,4s)-4-(Cyclopropanecarboxamido)cyclohexyl)-6-methoxy-N-(pyrazolo[1,5-c]pyrimidin-3-yl)-2H-indazole-5-carboxamide]
[1]
  IC50: 0.0044 µM
[2]
  IC50: 0.067 µM

## O=C(Nc1cnn2cccnc12)c1cc2cn([C@H]3CC[C@@H](O)CC3)nc2cc1OC1CC1 [Example 56]
[1]
  IC50: 0.0012 µM
[2]
  IC50: 0.079 µM

## COc1cc2nn([C@H]3CC[C@H](N(C)C(=O)[C@@H](C)O)CC3)cc2cc1C(=O)Nc1cnn2cccnc12 [Example 58]
[1]
  IC50: 0.0009 µM
[2]
  IC50: 0.016 µM

## COc1cc2nn([C@H]3CC[C@H](N(C)C(=O)[C@H](C)O)CC3)cc2cc1C(=O)Nc1cnn2cccnc12 [Example 59, 2-((1S,4r)-4-((S)-2-Hydroxy-N-methylpropanamido)cyclohexyl)-6-methoxy-N-(pyrazolo[1,5-a]pyrimidin-3-yl)-2H-indazole-5-carboxamide]
[1]
  IC50: 0.0013 µM
[2]
  IC50: 0.04 µM

## O=C(Nc1cnc2cccnn12)c1cc2cn([C@H]3CC[C@H](O)CC3)nc2cc1OC1CC1 [Example 84, 6-Cyclopropoxy-2-((1r,4r)-4-hydroxycyclohexyl)-N-(imidazo[1,2-b]pyridazin-3-yl)-2H-indazole-5-carboxamide]
[1]
  IC50: 0.0004 µM
[2]
  IC50: 0.04 µM

## O=C(Nc1cnc2cccnn12)c1cc2cn([C@H]3CC[C@@H](O)CC3)nc2cc1OC1CC1 [Example 85, 6-Cyclopropoxy-2-((1s,4s)-4-hydroxycyclohexyl)-N-(imidazo[1,2-b]pyridazin-3-yl)-2H-indazole-5-carboxamide]
[1]
  IC50: 0.0008 µM
[2]
  IC50: 0.05 µM

## COc1cc2nn([C@H]3CC[C@@]4(CC3)CC(=O)N(C)C4)cc2cc1C(=O)Nc1cnn2cccnc12 [Example 87, 6-methoxy-2-((5s,8s)-2-methyl-3-oxo-2-azaspiro[4.5]decan-8-yl)-N-(pyrazolo[1,5-a]pyrimidin-3-yl)-2H-indazole-5-carboxamide]
[1]
  IC50: 0.0002 µM
[2]
  IC50: 0.026 µM

## COc1cc2nn([C@@H]3CC[C@H](O)C[C@H]3C)cc2cc1C(=O)Nc1cnc2cccnn12 [Example 88, 2-((1R,2R,4S)-4-hydroxy-2-methylcyclohexyl)-N-(imidazo[1,2-b]pyridazin-3-yl)-6-methoxy-2H-indazole-5-carboxamide]
[1]
  IC50: 0.0013 µM
[2]
  IC50: 0.044 µM

## COc1cc2nn([C@H]3CC[C@@H](O)C[C@@H]3C)cc2cc1C(=O)Nc1cnc2cccnn12 [Example 90, 2-((1S,2S,4R)-4-hydroxy-2-methylcyclohexyl)-N-(imidazo[1,2-b]pyridazin-3-yl)-6-methoxy-2H-indazole-5-carboxamide]
[1]
  IC50: 0.0052 µM
[2]
  IC50: 0.101 µM

## COc1cc2nn([C@H]3CC[C@H](N(C)C(=O)[C@@H](C)O)CC3)cc2cc1C(=O)Nc1cnc2cccnn12 [Example 95, 2-((1R,4r)-4-((R)-2-Hydroxy-N-methylpropanamido)cyclohexyl)-N-(imidazo[1,2-b]pyridazin-3-yl)-6-methoxy-2H-indazole-5-carboxamide]
[1]
  IC50: 0.0002 µM
[2]
  IC50: 0.007 µM

## COc1cc2nn([C@H]3CC[C@H](N(C)C(=O)C4CC4)CC3)cc2cc1C(=O)Nc1cnn2cnccc12 [Example 96, 6-Methoxy-2-((1r,4r)-4-(N-methylcyclopropanecarboxamido)cyclohexyl)-N-(pyrazolo[1,5-c]pyrimidin-3-yl)-2H-indazole-5-carboxamide]
[1]
  IC50: 0.0005 µM
[2]
  IC50: 0.015 µM

From patent US11866405B2, “Substituted indazoles as IRAK4 inhibitors” (AstraZeneca AB, priority 2020, dated 2024)
